Test results taken from PubChem BioAssay AID200 (DTP/NCI, 2004).
“And” between values parts separate entries of the source, which are not always exact repeats. Equal entries are not always repeated. Toxic doses and inconclusive results are not listed.

Tested on: B6C3F1 mice, B16 melanoma ip, median survival T/C
Assay: NCI In Vivo Anticancer Drug Screen. Data for tumor model B16 Melanoma (intraperitoneal) in B6C3F1 mice
Details: endpoint: median survival time, higher = longer survival
Description: The antitumor activity of compounds was measured in mice bearing transplantable tumors. Survival or tumor size were measured and the results are expressed as the measurement made in the treated group (T) divided by the measurement made in the vehicle treated control group (C). The tumor model used in this assay is B16 Melanoma (intraperitoneal) in B6C3F1 mice

[1] = dose: 6.25 mg/kg/injection, schedule: Q01DX009 (ip), vehicle: saline with Tween-80
[2] = dose: 12.5 mg/kg/injection, schedule: Q01DX009 (ip), vehicle: saline with Tween-80
[3] = dose: 25.0 mg/kg/injection, schedule: Q01DX009 (ip), vehicle: saline with Tween-80
[4] = dose: 50.0 mg/kg/injection, schedule: Q01DX009 (ip), vehicle: saline with Tween-80
[5] = dose: 2.0 mg/kg/injection, schedule: Q01DX009 (ip), vehicle: water
[6] = dose: 4.0 mg/kg/injection, schedule: Q01DX009 (ip), vehicle: water
[7] = dose: 8.0 mg/kg/injection, schedule: Q01DX009 (ip), vehicle: water
[8] = dose: 25.0 mg/kg/injection, schedule: Q01DX009 (ip), vehicle: saline
[9] = dose: 25.0 mg/kg/injection, schedule: Q01DX009 (ip), vehicle: water
[10] = dose: 50.0 mg/kg/injection, schedule: Q01DX009 (ip), vehicle: saline
[11] = dose: 100.0 mg/kg/injection, schedule: Q01DX009 (ip), vehicle: saline with Tween-80
[12] = dose: 200.0 mg/kg/injection, schedule: Q01DX009 (ip), vehicle: saline with Tween-80
[13] = dose: 400.0 mg/kg/injection, schedule: Q01DX009 (ip), vehicle: saline with Tween-80
[14] = dose: 1.56 mg/kg/injection, schedule: Q01DX009 (ip), vehicle: saline with Tween-80
[15] = dose: 100.0 mg/kg/injection, schedule: Q01DX009 (ip), vehicle: Klucel (hydroxypropylcellulose) (HPC)

COc1ccc(CC2C(=O)NC(C)C(=O)N(C)C3C(=O)N(C)C(Cc4ccc(O)c(c4)Oc4ccc(cc4)C3O)C(=O)NC(C)C(=O)NC(C)C(=O)N2C)cc1 (stereo not given)
T/C (dose: 0.25 mg/kg/injection, schedule: Q01DX005 (ip), vehicle: saline with Tween-80): 123 % of control | T/C (dose: 0.25 mg/kg/injection, schedule: Q01DX005 (iv), vehicle: saline with Tween-80): 89 % of control and 107 % of control | T/C (dose: 0.5 mg/kg/injection, schedule: Q01DX005 (iv), vehicle: saline with Tween-80): 98 % of control and 100 % of control | T/C (dose: 0.5 mg/kg/injection, schedule: Q01DX009 (ip), vehicle: saline with Tween-80): 174 % of control | T/C (dose: 1.0 mg/kg/injection, schedule: Q01DX005 (iv), vehicle: saline with Tween-80): 98 % of control and 99 % of control | T/C (dose: 2.0 mg/kg/injection, schedule: Q01DX005 (iv), vehicle: saline with Tween-80): 98 % of control and 104 % of control | T/C (dose: 2.0 mg/kg/injection, schedule: Q01DX009 (ip), vehicle: saline with Tween-80): 152 % of control

CCCCC(=O)OCC1OC(n2cnc3c(=S)nc[nH]c32)C(OC(=O)CCCC)C1OC(=O)CCCC (stereo not given)
T/C [1]: 102 % of control | T/C [2]: 105 % of control | T/C [3]: 108 % of control | T/C [4]: 92 % of control

NCCCN=c1ccc2c3c1c(O)c1c(O)ccc(=O)c1c3[nH]n2CCNCCO
T/C [5]: 188 % of control | T/C [6]: 263 % of control | T/C [7]: 165 % of control

O=Cc1ccc(O)c(O)c1
T/C [1]: 100 % of control | T/C [2]: 87 % of control | T/C (dose: 12.5 mg/kg/injection, schedule: Q01DX009 (ip), vehicle: saline): 97 % of control | T/C [3]: 94 % of control and 97 % of control | T/C [8]: 99 % of control | T/C [9]: 112 % of control and 100 % of control | T/C [4]: 93 % of control | T/C [10]: 89 % of control | T/C (dose: 50.0 mg/kg/injection, schedule: Q01DX009 (ip), vehicle: water): 112 % of control and 90 % of control | T/C [11]: 89 % of control | T/C (dose: 100.0 mg/kg/injection, schedule: Q01DX009 (ip), vehicle: saline): 96 % of control | T/C (dose: 100.0 mg/kg/injection, schedule: Q01DX009 (ip), vehicle: water): 95 % of control and 96 % of control | T/C [12]: 89 % of control | T/C (dose: 200.0 mg/kg/injection, schedule: Q01DX009 (ip), vehicle: saline): 95 % of control | T/C [13]: 92 % of control | T/C (dose: 400.0 mg/kg/injection, schedule: Q01DX009 (ip), vehicle: saline): 104 % of control

Cc1cc(NCCCCCCCCNc2cc(C)nc3cc(N(C)C)ccc23)c2ccc(N(C)C)cc2n1
T/C (dose: 3.12 mg/kg/injection, schedule: Q01DX009 (ip), vehicle: distilled water + Tween-80): 105 % of control | T/C (dose: 6.25 mg/kg/injection, schedule: Q01DX009 (ip), vehicle: distilled water + Tween-80): 115 % of control | T/C (dose: 25.0 mg/kg/injection, schedule: Q01DX009 (ip), vehicle: distilled water + Tween-80): 121 % of control

C=CCNc1nc2c(s1)CCc1cc(OC)c(OC)cc1-2
T/C [2]: 103 % of control | T/C [3]: 116 % of control | T/C [4]: 107 % of control | T/C [11]: 100 % of control | T/C [12]: 103 % of control | T/C [13]: 103 % of control

O=[N+]([O-])O.[Ga]
T/C (dose: 4.0 mg/kg/injection, schedule: Q01DX009 (ip), vehicle: saline): 105 % of control | T/C [6]: 99 % of control | T/C (dose: 8.0 mg/kg/injection, schedule: Q01DX009 (ip), vehicle: saline): 98 % of control | T/C [7]: 95 % of control | T/C (dose: 16.0 mg/kg/injection, schedule: Q01DX009 (ip), vehicle: saline): 101 % of control | T/C (dose: 16.0 mg/kg/injection, schedule: Q01DX009 (ip), vehicle: water): 100 % of control | T/C [8]: 101 % of control | T/C (dose: 32.0 mg/kg/injection, schedule: Q01DX009 (ip), vehicle: saline): 95 % of control | T/C (dose: 32.0 mg/kg/injection, schedule: Q01DX009 (ip), vehicle: water): 97 % of control | T/C [10]: 100 % of control | T/C (dose: 64.0 mg/kg/injection, schedule: Q01DX009 (ip), vehicle: saline): 91 % of control | T/C (dose: 64.0 mg/kg/injection, schedule: Q01DX009 (ip), vehicle: water): 96 % of control

COC(=O)NC1C(C)OC(OC2C/C=C(/C)C3C=CC4C(OC5CC(OC6CC(OC7CC(O)C(O)C(C)O7)C(OC7CC(O)C(OC)C(C)O7)C(C)O6)C(O)C(C)O5)C(C)CC(C)C4C3(C)/C(O)=C3\C(=O)OC4(CC(C)C(CO)=CC4/C=C\2C)C3=O)CC1(C)[N+](=O)[O-] (stereo not given)
T/C (dose: 6.25 mg/kg/injection, schedule: Q01DX009 (ip), vehicle: water): 117 % of control and 100 % of control | T/C (dose: 12.5 mg/kg/injection, schedule: Q01DX009 (ip), vehicle: water): 108 % of control and 122 % of control | T/C (dose: 12.5 mg/kg/injection, schedule: Q01DX009 (sc), vehicle: water): 92 % of control | T/C [9]: 116 % of control | T/C (dose: 25.0 mg/kg/injection, schedule: Q01DX009 (sc), vehicle: water): 91 % of control | T/C (dose: 50.0 mg/kg/injection, schedule: Q01DX009 (sc), vehicle: water): 113 % of control | T/C (dose: 100.0 mg/kg/injection, schedule: Q01DX009 (sc), vehicle: water): 89 % of control | T/C (dose: 200.0 mg/kg/injection, schedule: Q01DX009 (sc), vehicle: water): 98 % of control

[Cl][Hg][CH]1CCC2OC1CC[CH]2[Hg][Cl] (stereo not given)
T/C [14]: 97 % of control | T/C (dose: 3.12 mg/kg/injection, schedule: Q01DX009 (ip), vehicle: saline with Tween-80): 97 % of control | T/C [1]: 101 % of control

CC(C)(C)OC(=O)NC(Cc1ccc(O)cc1)C(=O)O (stereo not given)
T/C [15]: 108 % of control | T/C (dose: 200.0 mg/kg/injection, schedule: Q01DX009 (ip), vehicle: Klucel (hydroxypropylcellulose) (HPC)): 103 % of control | T/C (dose: 400.0 mg/kg/injection, schedule: Q01DX009 (ip), vehicle: Klucel (hydroxypropylcellulose) (HPC)): 97 % of control

O=C(Oc1ccc(-c2ccc(Br)cc2)cc1)c1ccco1
T/C (dose: 0.78 mg/kg/injection, schedule: Q01DX009 (ip), vehicle: saline with Tween-80): 107 % of control | T/C [14]: 106 % of control | T/C (dose: 3.13 mg/kg/injection, schedule: Q01DX009 (ip), vehicle: saline with Tween-80): 102 % of control | T/C [1]: 111 % of control and 100 % of control | T/C [3]: 92 % of control | T/C [4]: 97 % of control

O=C(Nc1ccccc1)c1c(O)[nH]c(=S)[nH]c1=O
T/C (dose: 6.0 mg/kg/injection, schedule: Q01DX009 (ip), vehicle: saline with Tween-80): 108 % of control | T/C [2]: 114 % of control and 115 % of control | T/C (dose: 44.0 mg/kg/injection, schedule: Q01DX009 (ip), vehicle: saline with Tween-80): 153 % of control | T/C (dose: 56.0 mg/kg/injection, schedule: Q01DX009 (oral), vehicle: saline with Tween-80): 111 % of control | T/C (dose: 67.0 mg/kg/injection, schedule: Q01DX009 (ip), vehicle: saline with Tween-80): 161 % of control | T/C (dose: 83.0 mg/kg/injection, schedule: Q01DX009 (oral), vehicle: saline with Tween-80): 117 % of control | T/C (dose: 100.0 mg/kg/injection, schedule: Q01DX005 (oral), vehicle: saline with Tween-80): 110 % of control | T/C (dose: 124.0 mg/kg/injection, schedule: Q01DX009 (oral), vehicle: saline with Tween-80): 114 % of control | T/C (dose: 149.0 mg/kg/injection, schedule: Q01DX005 (oral), vehicle: saline with Tween-80): 118 % of control | T/C (dose: 185.0 mg/kg/injection, schedule: Q01DX009 (oral), vehicle: saline with Tween-80): 121 % of control | T/C (dose: 223.0 mg/kg/injection, schedule: Q01DX005 (oral), vehicle: saline with Tween-80): 114 % of control | T/C (dose: 333.0 mg/kg/injection, schedule: Q01DX005 (oral), vehicle: saline with Tween-80): 116 % of control

Nc1nc(SCc2ccccc2)c2ncn(C3OC(CO)CC3O)c2n1 (stereo not given)
T/C (dose: 50.0 mg/kg/injection, schedule: Q01DX009 (ip), vehicle: Klucel (hydroxypropylcellulose) (HPC)): 116 % of control | T/C [15]: 107 % of control

CC(=O)C(=O)O.CC(=O)C(=O)O.[NH-]C1CCCCC1[NH-].[Pt+2] (stereo not given)
T/C (dose: 3.12 mg/kg/injection, schedule: Q01DX009 (ip), vehicle: other): 122 % of control

CCN(CC)CC(=O)O[C@]1(CC)C(=O)OCc2c1cc1n(c2=O)Cc2cc3ccccc3nc2-1
T/C (dose: 1.0 mg/kg/injection, schedule: Q01DX009 (ip), vehicle: water): 108 % of control | T/C [5]: 121 % of control | T/C (dose: 4.8 mg/kg/injection, schedule: Q01DX009 (ip), vehicle: water): 152 % of control | T/C [7]: 166 % of control
